Laboratory results: PubChem BioAssay AID1918939 (Molecular Pharmacology Branch, DTP, NCI, 2023)

Tested on: 653999-131-R-J2-PDC complex spheroid viability
Assay: Anticancer human tumor 653999-131-R-J2-PDC patient-derived lung adenocarcinoma cell line growth inhibition
Conditions: for IC50: curve of first compound; for viability, T/C: stronger effect = lower value
Procedure, shortened: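 Drug combinations with the LSD1 inhibitor iadademstat tested on tumor cells co-cultured as spheroids with endothelial cells and mesenchymal stem cells. Concentrations descended in half-log increments from clinical Cmax or 10 microM.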

[1] = second compound 0.1 µM, first compound 0.0316 µM
[2] = second compound 0.1 µM, first compound 0.1 µM
[3] = second compound 0.316 µM, first compound 0.0316 µM
[4] = second compound 0.316 µM, first compound 0.1 µM
[5] = second compound 1 µM, first compound 0.0316 µM
[6] = second compound 1 µM, first compound 0.1 µM
[7] = second compound 3.16 µM, first compound 0.0316 µM
[8] = second compound 3.16 µM, first compound 0.1 µM
[9] = second compound 10 µM, first compound 0.0316 µM
[10] = second compound 10 µM, first compound 0.1 µM
[11] = second compound 0.1 µM, first compound 0.000949 µM
[12] = second compound 0.1 µM, first compound 0.003 µM
[13] = second compound 0.1 µM, first compound 0.00949 µM
[14] = second compound 0.1 µM, first compound 0.03 µM
[15] = second compound 0.1 µM, first compound 0.0949 µM
[16] = second compound 0.1 µM, first compound 0.3 µM
[17] = second compound 0.316 µM, first compound 0.000949 µM
[18] = second compound 0.316 µM, first compound 0.003 µM
[19] = second compound 0.316 µM, first compound 0.00949 µM
[20] = second compound 0.316 µM, first compound 0.03 µM
[21] = second compound 0.316 µM, first compound 0.0949 µM
[22] = second compound 0.316 µM, first compound 0.3 µM
[23] = second compound 1 µM, first compound 0.000949 µM
[24] = second compound 1 µM, first compound 0.003 µM
[25] = second compound 1 µM, first compound 0.00949 µM
[26] = second compound 1 µM, first compound 0.03 µM
[27] = second compound 1 µM, first compound 0.0949 µM
[28] = second compound 1 µM, first compound 0.3 µM
[29] = second compound 3.16 µM, first compound 0.000949 µM
[30] = second compound 3.16 µM, first compound 0.003 µM
[31] = second compound 3.16 µM, first compound 0.00949 µM
[32] = second compound 3.16 µM, first compound 0.03 µM
[33] = second compound 3.16 µM, first compound 0.0949 µM
[34] = second compound 3.16 µM, first compound 0.3 µM
[35] = second compound 10 µM, first compound 0.000949 µM
[36] = second compound 10 µM, first compound 0.003 µM
[37] = second compound 10 µM, first compound 0.00949 µM
[38] = second compound 10 µM, first compound 0.03 µM
[39] = second compound 10 µM, first compound 0.0949 µM
[40] = second compound 10 µM, first compound 0.3 µM
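Further: spheroids exposed to agents for seven days before readout.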

CC[C@@]1(O)C(=O)OCc2c1cc1n(c2=O)Cc2cc3c(CN(C)C)c(O)ccc3nc2-1 + NC1CCC(NC2CC2c2ccccc2)CC1
IC50 (second compound 0.1 µM): 4.65 nM
IC50 (second compound 0.316 µM): 5.23 nM
IC50 (second compound 1 µM): 4.8 nM
IC50 (second compound 3.16 µM): 5.51 nM
IC50 (second compound 10 µM): 6.87 nM
viability, T/C (second compound 0.1 µM, first compound 0.000316 µM): 89.3%
viability, T/C (second compound 0.1 µM, first compound 0.001 µM): 85.3%
viability, T/C (second compound 0.1 µM, first compound 0.00316 µM): 50.7%
viability, T/C (second compound 0.1 µM, first compound 0.01 µM): 40.2%
viability, T/C [1]: 27.5%
viability, T/C [2]: 19.8%
viability, T/C (second compound 0.316 µM, first compound 0.000316 µM): 87%
viability, T/C (second compound 0.316 µM, first compound 0.001 µM): 80.4%
viability, T/C (second compound 0.316 µM, first compound 0.00316 µM): 57.9%
viability, T/C (second compound 0.316 µM, first compound 0.01 µM): 37.9%
viability, T/C [3]: 26.2%
viability, T/C [4]: 18%
viability, T/C (second compound 1 µM, first compound 0.000316 µM): 94.7%
viability, T/C (second compound 1 µM, first compound 0.001 µM): 73.2%
viability, T/C (second compound 1 µM, first compound 0.00316 µM): 61.6%
viability, T/C (second compound 1 µM, first compound 0.01 µM): 35.9%
viability, T/C [5]: 25.1%
viability, T/C [6]: 21.6%
viability, T/C (second compound 3.16 µM, first compound 0.000316 µM): 78.7%
viability, T/C (second compound 3.16 µM, first compound 0.001 µM): 75.3%
viability, T/C (second compound 3.16 µM, first compound 0.00316 µM): 52.7%
viability, T/C (second compound 3.16 µM, first compound 0.01 µM): 44.1%
viability, T/C [7]: 29.9%
viability, T/C [8]: 20.7%
viability, T/C (second compound 10 µM, first compound 0.000316 µM): 91.9%
viability, T/C (second compound 10 µM, first compound 0.001 µM): 77.9%
viability, T/C (second compound 10 µM, first compound 0.00316 µM): 63.9%
viability, T/C (second compound 10 µM, first compound 0.01 µM): 44.3%
viability, T/C [9]: 27.1%
viability, T/C [10]: 19.7%

CCc1c2c(nc3ccc(O)cc13)-c1cc3c(c(=O)n1C2)COC(=O)[C@]3(O)CC + NC1CCC(NC2CC2c2ccccc2)CC1
IC50 (second compound 0.1 µM): < 0.949 nM
IC50 (second compound 0.316 µM): < 0.949 nM
IC50 (second compound 1 µM): < 0.949 nM
IC50 (second compound 3.16 µM): < 0.949 nM
IC50 (second compound 10 µM): < 0.949 nM
viability, T/C [11]: 22%
viability, T/C [12]: 13.8%
viability, T/C [13]: 11.8%
viability, T/C [14]: 7.96%
viability, T/C [15]: 5.01%
viability, T/C [16]: 5%
viability, T/C [17]: 19.8%
viability, T/C [18]: 15.9%
viability, T/C [19]: 9.62%
viability, T/C [20]: 7.91%
viability, T/C [21]: 3.58%
viability, T/C [22]: 6.63%
viability, T/C [23]: 21.6%
viability, T/C [24]: 15.2%
viability, T/C [25]: 9.88%
viability, T/C [26]: 7.86%
viability, T/C [27]: 4.29%
viability, T/C [28]: 4.06%
viability, T/C [29]: 22.2%
viability, T/C [30]: 17.5%
viability, T/C [31]: 12.6%
viability, T/C [32]: 7.56%
viability, T/C [33]: 4.32%
viability, T/C [34]: 3.82%
viability, T/C [35]: 25.5%
viability, T/C [36]: 15.8%
viability, T/C [37]: 9.94%
viability, T/C [38]: 6.03%
viability, T/C [39]: 2.71%
viability, T/C [40]: 2.44%

COc1cc(C2c3cc4c(cc3C(OC3OC5COC(C)OC5C(O)C3O)C3COC(=O)C23)OCO4)cc(OC)c1O (stereo not given) + NC1CCC(NC2CC2c2ccccc2)CC1
IC50 (second compound 0.1 µM): 88.4 nM
IC50 (second compound 0.316 µM): 123 nM
IC50 (second compound 1 µM): 64.5 nM
IC50 (second compound 3.16 µM): 168 nM
IC50 (second compound 10 µM): 241 nM
viability, T/C [13]: 70.8%
viability, T/C [14]: 61.6%
viability, T/C [15]: 48.6%
viability, T/C [16]: 38.2%
viability, T/C (second compound 0.1 µM, first compound 0.949 µM): 37.6%
viability, T/C (second compound 0.1 µM, first compound 3 µM): 28.3%
viability, T/C [19]: 68.6%
viability, T/C [20]: 63.7%
viability, T/C [21]: 54.5%
viability, T/C [22]: 36.6%
viability, T/C (second compound 0.316 µM, first compound 0.949 µM): 31.3%
viability, T/C (second compound 0.316 µM, first compound 3 µM): 29.7%
viability, T/C [25]: 74.5%
viability, T/C [26]: 52.6%
viability, T/C [27]: 50.2%
viability, T/C [28]: 35.7%
viability, T/C (second compound 1 µM, first compound 0.949 µM): 37.5%
viability, T/C (second compound 1 µM, first compound 3 µM): 26.8%
viability, T/C [31]: 71.5%
viability, T/C [32]: 66.6%
viability, T/C [33]: 55.9%
viability, T/C [34]: 44.9%
viability, T/C (second compound 3.16 µM, first compound 0.949 µM): 31.3%
viability, T/C (second compound 3.16 µM, first compound 3 µM): 30.3%
viability, T/C [37]: 68.3%
viability, T/C [38]: 60.6%
viability, T/C [39]: 57.7%
viability, T/C [40]: 49.9%
viability, T/C (second compound 10 µM, first compound 0.949 µM): 37.3%
viability, T/C (second compound 10 µM, first compound 3 µM): 31.3%

Nc1ccn(C2OC(CO)C(O)C2(F)F)c(=O)n1 (stereo not given) + NC1CCC(NC2CC2c2ccccc2)CC1
IC50 (second compound 0.1 µM): 8.36 nM
IC50 (second compound 0.316 µM): 2.64 nM
IC50 (second compound 1 µM): 7.34 nM
IC50 (second compound 3.16 µM): 6.64 nM
IC50 (second compound 10 µM): 23 nM
viability, T/C [11]: 64.2%
viability, T/C [12]: 62.6%
viability, T/C [13]: 46.7%
viability, T/C [14]: 38.7%
viability, T/C [15]: 34.5%
viability, T/C [16]: 30.1%
viability, T/C [17]: 58.4%
viability, T/C [18]: 45.5%
viability, T/C [19]: 47.8%
viability, T/C [20]: 30.8%
viability, T/C [21]: 30.6%
viability, T/C [22]: 27.3%
viability, T/C [23]: 56%
viability, T/C [24]: 55.8%
viability, T/C [25]: 48.4%
viability, T/C [26]: 36.6%
viability, T/C [27]: 34.8%
viability, T/C [28]: 31.3%
viability, T/C [29]: 70.5%
viability, T/C [30]: 52.2%
viability, T/C [31]: 47.5%
viability, T/C [32]: 45%
viability, T/C [33]: 34.8%
viability, T/C [34]: 33.1%
viability, T/C [35]: 65.2%
viability, T/C [36]: 64.7%
viability, T/C [37]: 59%
viability, T/C [38]: 47.8%
viability, T/C [39]: 40.4%
viability, T/C [40]: 43.8%

O=C(c1cc(Cc2n[nH]c(=O)c3ccccc23)ccc1F)N1CCN(C(=O)C2CC2)CC1 + NC1CCC(NC2CC2c2ccccc2)CC1
IC50 (second compound 0.1 µM): > 10000 nM
IC50 (second compound 0.316 µM): > 10000 nM
IC50 (second compound 1 µM): > 10000 nM
IC50 (second compound 3.16 µM): > 10000 nM
IC50 (second compound 10 µM): > 10000 nM
viability, T/C [1]: 86.2%
viability, T/C [2]: 94.2%
viability, T/C (second compound 0.1 µM, first compound 0.316 µM): 80.7%
viability, T/C (second compound 0.1 µM, first compound 1 µM): 87.7%
viability, T/C (second compound 0.1 µM, first compound 3.16 µM): 81.6%
viability, T/C (second compound 0.1 µM, first compound 10 µM): 57.6%
viability, T/C [3]: 99.5%
viability, T/C [4]: 93.6%
viability, T/C (second compound 0.316 µM, first compound 0.316 µM): 98.3%
viability, T/C (second compound 0.316 µM, first compound 1 µM): 84.6%
viability, T/C (second compound 0.316 µM, first compound 3.16 µM): 70.1%
viability, T/C (second compound 0.316 µM, first compound 10 µM): 53%
viability, T/C [5]: 103%
viability, T/C [6]: 92.5%
viability, T/C (second compound 1 µM, first compound 0.316 µM): 109%
viability, T/C (second compound 1 µM, first compound 1 µM): 81%
viability, T/C (second compound 1 µM, first compound 3.16 µM): 71.5%
viability, T/C (second compound 1 µM, first compound 10 µM): 56.9%
viability, T/C [7]: 91.3%
viability, T/C [8]: 104%
viability, T/C (second compound 3.16 µM, first compound 0.316 µM): 84.8%
viability, T/C (second compound 3.16 µM, first compound 1 µM): 84.7%
viability, T/C (second compound 3.16 µM, first compound 3.16 µM): 85.1%
viability, T/C (second compound 3.16 µM, first compound 10 µM): 58.5%
viability, T/C [9]: 113%
viability, T/C [10]: 93.9%
viability, T/C (second compound 10 µM, first compound 0.316 µM): 102%
viability, T/C (second compound 10 µM, first compound 1 µM): 92.2%
viability, T/C (second compound 10 µM, first compound 3.16 µM): 76.4%
viability, T/C (second compound 10 µM, first compound 10 µM): 60%
